Source: patent publication US12054498B2, “Heteroaromatic macrocyclic ether chemotherapeutic agents” (Nuvalent, Inc., priority 2020, dated 2024)
pIC50, pKi: −log10 of the molar value.

Tests used:
[1] = target: T1, ALK L1196M/G1202R (Homo sapiens, UniProt Q9UM73, G1202R/L1196M); assay: Biochemical kinase assay, ALK L1196M/G1202R kinase domain; conditions: apparent inhibitory constant, Morrison equation; ATP 2 mM in substrate solution; read-out: ALK-L1196M-G1202R Ki^app
T1 construct: purchased SignalChem A19-12NG
T1 sequence (Q9UM73 1116-1392 L1196M/G1202R limits assumed): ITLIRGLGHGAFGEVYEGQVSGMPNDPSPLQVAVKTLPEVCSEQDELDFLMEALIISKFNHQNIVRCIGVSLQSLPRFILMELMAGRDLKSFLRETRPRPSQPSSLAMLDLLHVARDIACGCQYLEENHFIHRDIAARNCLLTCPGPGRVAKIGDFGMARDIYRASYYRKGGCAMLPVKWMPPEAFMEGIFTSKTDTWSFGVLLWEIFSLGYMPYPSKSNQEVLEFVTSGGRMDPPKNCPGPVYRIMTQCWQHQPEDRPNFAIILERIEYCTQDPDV
Procedure, shortened: (§1)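 Continuous fluorescence read (λ=485 nm, every 2 min, 120 min, 30° C). Substrate solution held 2 mM ATP and 26 μM AQT0101 (ROS1/ALK) or AQT0104 (TRKA). Kinase solution: ROS1-G2032R 0.5 nM, ROS1-wt 0.6 nM, TRKA 1 nM, ALK double mutant 3 nM. Initial linear rates fed a Morrison-equation fit giving Ki^app.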

[2] = target: T2, Ba/F3 cells CD74-ROS1 wild-type (wt) (Homo sapiens, UniProt P08922); assay: Ba/F3 cell proliferation assay, CD74-ROS1 wild-type; assay type: cell-based; conditions: 72 hours, CellTiter-Glo
T2 construct: fusion of the C-terminus of ROS1 with the N-terminus of various partner proteins; host or cells: Ba/F3 (RIKEN), retroviral pMSCV-puro; the other entry of the earlier key: CD74 (P04233, HLA class II histocompatibility antigen gamma chain)
T2 sequence (P08922 1883-2347 limits assumed): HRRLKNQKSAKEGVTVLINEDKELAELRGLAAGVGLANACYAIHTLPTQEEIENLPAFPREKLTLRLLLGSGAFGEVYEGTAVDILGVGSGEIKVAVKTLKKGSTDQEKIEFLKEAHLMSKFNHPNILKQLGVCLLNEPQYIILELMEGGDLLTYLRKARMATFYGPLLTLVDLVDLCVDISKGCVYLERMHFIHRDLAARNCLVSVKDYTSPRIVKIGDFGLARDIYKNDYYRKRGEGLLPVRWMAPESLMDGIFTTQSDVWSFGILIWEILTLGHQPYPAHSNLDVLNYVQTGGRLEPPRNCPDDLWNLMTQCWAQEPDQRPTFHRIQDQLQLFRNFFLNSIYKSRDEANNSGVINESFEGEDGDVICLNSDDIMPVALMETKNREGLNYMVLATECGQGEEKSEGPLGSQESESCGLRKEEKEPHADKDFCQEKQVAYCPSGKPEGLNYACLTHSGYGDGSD
Procedure, shortened: (§2)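 Cells were seeded 1 day, then exposed to a 3-fold compound dilution series for 72 hours. Viability was read by CellTiter-Glo luminescence; IC50 came from four-parameter logistic fitting of percent inhibition.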

[3] = target: T3, TRKA-wt (Homo sapiens, UniProt P04629); assay: Biochemical kinase assay, TRKA-wt kinase domain; conditions: apparent inhibitory constant, Morrison equation; ATP 2 mM in substrate solution; read-out: TRKA-wt Ki^app
T3 construct: or TRKA-wt (1 nM, BPS Bio, 40280) kinase domains in buffer; purchased BPS Bio 40280
T3 sequence (P04629 510-781 limits assumed): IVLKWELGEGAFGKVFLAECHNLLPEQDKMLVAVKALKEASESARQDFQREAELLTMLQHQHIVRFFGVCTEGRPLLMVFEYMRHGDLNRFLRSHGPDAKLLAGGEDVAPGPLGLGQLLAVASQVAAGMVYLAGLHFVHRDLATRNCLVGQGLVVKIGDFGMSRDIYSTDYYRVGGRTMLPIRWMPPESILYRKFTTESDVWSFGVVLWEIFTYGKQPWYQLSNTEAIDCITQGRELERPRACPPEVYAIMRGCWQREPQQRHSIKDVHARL
Procedure, shortened: as §1

[4] = target: T4, ALK-wt (Homo sapiens, UniProt Q9UM73); assay: Biochemical kinase assay, ALK-wt kinase domain; conditions: apparent inhibitory constant, Morrison equation; ATP 2 mM in substrate solution; read-out: ALK-wt Ki^app
T4 construct: purchased Carna 08-518
T4 sequence (Q9UM73 1116-1392 limits assumed): as the sequence (Q9UM73 1116-1392 L1196M/G1202R limits assumed) above, with M81L, R87G counted along it
Procedure, shortened: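 Compound in DMSO added first, then substrate solution (ATP 2 mM; AQT0101 or AQT0104, 26 μM; pH 7.5 HEPES, 10 mM MgCl2), then kinase solution with enzyme at 0.5–3 nM depending on construct. Kinetic read every 2 min for 120 min at 30° C; Ki^app by Morrison regression.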

[5] = target: T5, Ba/F3 cells CD74-ROS1 G2032R (Homo sapiens, UniProt P08922, G2032R); assay: Ba/F3 cell proliferation assay, CD74-ROS1 G2032R; assay type: cell-based; conditions: 72 hours, CellTiter-Glo
T5 construct: fusion of the C-terminus of ROS1 with the N-terminus of various partner proteins; host or cells: Ba/F3 (RIKEN), retroviral pMSCV-puro; the other entry of the earlier key: CD74 (P04233, HLA class II histocompatibility antigen gamma chain)
T5 sequence (P08922 1883-2347 G2032R limits assumed): as the sequence (P08922 1883-2347 limits assumed) above, with G150R counted along it
Procedure, shortened: as §2

[6] = target: T6, ROS1-wt (Homo sapiens, UniProt P08922); assay: Biochemical kinase assay, ROS1-wt kinase domain; conditions: apparent inhibitory constant, Morrison equation; ATP 2 mM in substrate solution; read-out: ROS1-wt Ki^app
T6 construct: purchased Carna 08-163
T6 sequence (P08922 1945-2222 limits assumed): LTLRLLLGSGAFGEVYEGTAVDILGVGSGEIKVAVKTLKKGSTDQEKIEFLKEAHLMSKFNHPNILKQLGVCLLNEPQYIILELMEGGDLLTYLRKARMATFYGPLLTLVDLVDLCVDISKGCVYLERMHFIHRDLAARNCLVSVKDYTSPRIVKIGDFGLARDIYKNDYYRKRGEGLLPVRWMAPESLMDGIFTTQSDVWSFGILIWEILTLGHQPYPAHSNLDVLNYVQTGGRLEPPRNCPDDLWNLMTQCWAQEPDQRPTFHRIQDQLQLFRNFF
Procedure, shortened: (§3)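 Kinetic read: 485 nm, 2-min intervals, 120 min, 30 °C. Substrate mix — ATP 2 mM, AQT0101 26 μM, HEPES 50 mM pH 7.5, MgCl2 10 mM. Output: Ki^app, Morrison equation.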

[7] = target: T7, Ba/F3 cells TPM3-TRKA (Homo sapiens, UniProt P04629); assay: Ba/F3 cell proliferation assay, TPM3-TRKA; assay type: cell-based; conditions: 72 hours, CellTiter-Glo, read-out: TPM3-NTRK1-wt IC50
T7 construct: host or cells: Ba/F3 (RIKEN), retroviral pMSCV-puro; the other entry of the earlier key: TPM3 (P06753, Tropomyosin alpha-3 chain)
T7 sequence (P04629 510-796 limits assumed): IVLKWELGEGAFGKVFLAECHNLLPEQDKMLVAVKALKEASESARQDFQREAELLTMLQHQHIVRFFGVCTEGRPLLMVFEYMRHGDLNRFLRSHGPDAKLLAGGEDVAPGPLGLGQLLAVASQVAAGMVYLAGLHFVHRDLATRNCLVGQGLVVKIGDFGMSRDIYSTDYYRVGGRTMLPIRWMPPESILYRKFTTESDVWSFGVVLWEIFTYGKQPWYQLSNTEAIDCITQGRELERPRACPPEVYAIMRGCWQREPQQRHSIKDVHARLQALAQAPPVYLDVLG
Procedure, shortened: (§4)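 First, Ba/F3 cells were made IL-3-independent via retroviral fusion expression and puromycin selection, then cloned by single-cell dilution. Next, 1,000 cells/well were plated for a day, exposed to 3-fold diluted compounds for 72 hours, and lysed with CellTiter-Glo. Finally, IC50 was fitted by four-parameter logistic regression.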

[8] = target: T8, Ba/F3 cells EML4-ALK wt (variant 1) (Homo sapiens, UniProt Q9UM73); assay: Ba/F3 cell proliferation assay, EML4-ALK wt (variant 1); assay type: cell-based; conditions: 72 hours, CellTiter-Glo
T8 construct: echinoderm microtubule-associated protein-like 4 (EML4) gene and the ALK tyrosine kinase domain; host or cells: Ba/F3 (RIKEN), retroviral pMSCV-puro; the other entry of the earlier key: EML4 (Q9HC35, Echinoderm microtubule-associated protein-like 4)
T8 sequence (Q9UM73 with tags, fused parts or gaps): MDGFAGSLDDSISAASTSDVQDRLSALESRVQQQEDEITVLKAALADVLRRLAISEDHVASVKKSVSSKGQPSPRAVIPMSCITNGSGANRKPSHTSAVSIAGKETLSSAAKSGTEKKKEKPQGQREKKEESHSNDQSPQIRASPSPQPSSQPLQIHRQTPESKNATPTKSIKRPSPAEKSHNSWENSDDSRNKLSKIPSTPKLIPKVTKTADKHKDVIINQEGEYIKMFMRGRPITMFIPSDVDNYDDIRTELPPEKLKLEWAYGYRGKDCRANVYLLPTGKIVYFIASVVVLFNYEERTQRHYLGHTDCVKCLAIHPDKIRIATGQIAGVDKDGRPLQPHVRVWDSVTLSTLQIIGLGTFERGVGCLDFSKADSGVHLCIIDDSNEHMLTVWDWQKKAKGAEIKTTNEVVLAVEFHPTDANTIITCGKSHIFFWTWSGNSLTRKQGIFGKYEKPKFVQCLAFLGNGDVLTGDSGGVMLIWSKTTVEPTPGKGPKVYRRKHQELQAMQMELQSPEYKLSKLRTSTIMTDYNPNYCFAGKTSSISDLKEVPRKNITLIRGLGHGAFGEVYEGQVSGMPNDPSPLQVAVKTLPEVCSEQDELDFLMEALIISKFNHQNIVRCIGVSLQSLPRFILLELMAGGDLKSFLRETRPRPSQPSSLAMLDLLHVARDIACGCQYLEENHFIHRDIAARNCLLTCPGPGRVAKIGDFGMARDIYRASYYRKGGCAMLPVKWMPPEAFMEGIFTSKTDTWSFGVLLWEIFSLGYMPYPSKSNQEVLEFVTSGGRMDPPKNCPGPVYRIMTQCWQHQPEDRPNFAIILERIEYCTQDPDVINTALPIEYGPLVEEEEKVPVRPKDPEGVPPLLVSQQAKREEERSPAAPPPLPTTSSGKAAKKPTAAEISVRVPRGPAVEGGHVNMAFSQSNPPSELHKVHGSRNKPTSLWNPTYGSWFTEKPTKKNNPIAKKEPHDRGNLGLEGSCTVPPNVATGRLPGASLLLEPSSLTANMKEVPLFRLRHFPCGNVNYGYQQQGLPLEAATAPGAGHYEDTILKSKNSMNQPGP
Procedure, shortened: as §4

[9] = target: T9, Ba/F3 cells EML4-ALK L1196M/G1202R (variant 1) (Homo sapiens, UniProt Q9UM73, G1202R/L1196M); assay: Ba/F3 cell proliferation assay, EML4-ALK L1196M/G1202R (variant 1); assay type: cell-based; conditions: 72 hours, CellTiter-Glo
T9 construct: echinoderm microtubule-associated protein-like 4 (EML4) gene and the ALK tyrosine kinase domain; host or cells: Ba/F3 (RIKEN), retroviral pMSCV-puro; the other entry of the earlier key: EML4 (Q9HC35, Echinoderm microtubule-associated protein-like 4)
T9 sequence (Q9UM73 with tags, fused parts or gaps L1196M/G1202R): as the sequence (Q9UM73 with tags, fused parts or gaps) above, with L635M, G641R counted along it
Procedure, shortened: as §4

[10] = tested on: TPM3-NTRK1-wt IC50 / primary target IC50 (e.g. CD74-ROS1-wt); assay: TRKA selectivity in Ba/F3 cells (TRKA potency divided by primary target potency); assay type: cell-based; conditions: for TPM3-NTRK1-wt/CD74-ROS1-G2032R selectivity ratio: TRKA potency / CD74-ROS1-G2032R potency; for TPM3-NTRK1-wt/CD74-ROS1-wt selectivity ratio: TRKA potency / CD74-ROS1-wt potency; for TPM3-NTRK1-wt/EML4-ALK-L1196M-G1202R selectivity ratio: TRKA potency / EML4-ALK-L1196M-G1202R potency; for TPM3-NTRK1-wt/EML4-ALK-wt selectivity ratio: TRKA potency / EML4-ALK-wt potency
Description: TRKA selectivity was calculated by dividing a compound's TRKA potency by its primary target potency (e.g. TPM3-NTRK1-wt IC50/CD74-ROS1-wt IC50). Compound selectivity can be interpreted by binning ratio values: bin A for very high selectivity, ratio >30-fold; bin B for high selectivity, ratio >10-fold; bin C for moderate selectivity, ratio ≥1; and bin D for low selectivity, ratio <1. […] (nd=not determined).

[11] = target: T10, ROS1-G2032R (Homo sapiens, UniProt P08922, G2032R); assay: Biochemical kinase assay, ROS1-G2032R kinase domain; conditions: apparent inhibitory constant, Morrison equation; ATP 2 mM in substrate solution; read-out: ROS1-G2032R Ki^app
T10 construct: purchased SignalChem R14-12BG
T10 sequence (P08922 1945-2222 G2032R limits assumed): as the sequence (P08922 1945-2222 limits assumed) above, with G88R counted along it
Procedure, shortened: as §3

pKi [1] | pIC50 [2] | pKi [3] | pKi [4] | pIC50 [5] | pKi [6] | pIC50 [7] | pIC50 [8] | pIC50 [9] | pKi [11] | SMILES | TPM3-NTRK1-wt/CD74-ROS1-G2032R selectivity ratio [10] | TPM3-NTRK1-wt/CD74-ROS1-wt selectivity ratio [10] | TPM3-NTRK1-wt/EML4-ALK-L1196M-G1202R selectivity ratio [10] | TPM3-NTRK1-wt/EML4-ALK-wt selectivity ratio [10]
> 7.30 | 7.30 to 10.00 | 6.30 to 7.30 | > 7.30 | 7.30 to 10.00 | > 7.30 | 6.30 to 7.30 | 7.30 to 10.00 | 6.30 to 7.30 | > 7.30 | CCn1ncc2c1-c1cnc(N)c(c1)O[C@H](C)c1cc(F)ccc1-c1nc(C)nn1C2 [Example 33, (19R)-3-ethyl-16-fluoro-10,19-dimethyl-20-oxa-hexaazapentacyclo[19.3.1.0^2,^6.0^8,^12.0^13,^18]pentacosa-1(24),2(6),4,9,11,13,15,17,21(25),22-decaen-22-amine] | A (bin A for very high selectivity, ratio >30-fold) | A (bin A for very high selectivity, ratio >30-fold) | C (bin C for moderate selectivity, ratio ≥1) | A (bin A for very high selectivity, ratio >30-fold)
> 7.30 | 7.30 to 10.00 | 6.30 to 7.30 | > 7.30 | 7.30 to 10.00 | > 7.30 | 6.30 to 7.30 | 7.30 to 10.00 | 7.30 to 10.00 | > 7.30 | CCn1ncc2c1-c1cnc(N)c(c1)OC(C)c1cc(F)ccc1-c1cccnc1C2 (centres unmarked) [Example 34, 3-ethyl-17-fluoro-20-methyl-21-oxa-3,4,9,24-tetraazapentacyclo[20.3.1.0^2,^6.0^8,^13.0^14,^19]hexacosa-1(25),2(6),4,8(13),9,11,14,16,18,22(26),23-undecaen-23-amine] | A (bin A for very high selectivity, ratio >30-fold) | A (bin A for very high selectivity, ratio >30-fold) | B (bin B for high selectivity, ratio >10-fold) | A (bin A for very high selectivity, ratio >30-fold)
> 7.30 | 7.30 to 10.00 | 6.30 to 7.30 | > 7.30 | 7.30 to 10.00 | > 7.30 | < 6.30 | 7.30 to 10.00 | 6.30 to 7.30 | > 7.30 | CCn1ncc2c1-c1cnc(N)c(c1)O[C@H](C)c1cc(F)ccc1-n1ncnc1C2 [Example 38, (19R)-3-ethyl-16-fluoro-19-methyl-20-oxa-3,4,9,11,12,23-hexaazapentacyclo[19.3.1.0^2,^6.0^8,^12.0^13,^18]pentacosa-1(24),2(6),4,8,10,13,15,17,21(25),22-decaen-22-amine] | A (bin A for very high selectivity, ratio >30-fold) | A (bin A for very high selectivity, ratio >30-fold) | C (bin C for moderate selectivity, ratio ≥1) | A (bin A for very high selectivity, ratio >30-fold)

The remaining lines, values behind:

SMILES | pKi [1] | pIC50 [2] | pKi [3] | pKi [4] | pIC50 [5] | pKi [6] | pIC50 [7] | pIC50 [8] | pIC50 [9] | pKi [11] | TPM3-NTRK1-wt/CD74-ROS1-G2032R selectivity ratio [10] | TPM3-NTRK1-wt/CD74-ROS1-wt selectivity ratio [10] | TPM3-NTRK1-wt/EML4-ALK-L1196M-G1202R selectivity ratio [10] | TPM3-NTRK1-wt/EML4-ALK-wt selectivity ratio [10]
C[C@H]1Oc2cc(cnc2N)-c2c(C3CCC3)nnn2Cc2nn(C)nc2-c2ccc(F)cc21 [Example 30, (19R)-3-cyclobutyl-16-fluoro-10,19-dimethyl-20-oxa-4,5,6,9,10,11,23-heptaazapentacyclo[19.3.1.0^2,^6.0^8,^12.0^13,^18]pentacosa-1(24),2,4,8,11,13,15,17,21(25),22-decaen-22-amine] | > 7.30 | 7.30 to 10.00 | < 6.30 | > 7.30 | 7.30 to 10.00 | > 7.30 | < 6.30 | 7.30 to 10.00 | 6.30 to 7.30 | > 7.30 | A (bin A for very high selectivity, ratio >30-fold) | A (bin A for very high selectivity, ratio >30-fold) | C (bin C for moderate selectivity, ratio ≥1) | A (bin A for very high selectivity, ratio >30-fold)
CCn1ncc2c1-c1cnc(N)c(c1)O[C@H](C)c1cc(F)ccc1-c1ncnn1C2 [Example 35, (19R)-3-ethyl-16-fluoro-19-methyl-20-oxa-3,4,8,9,11,23-hexaazapentacyclo[19.3.1.0^2,^6.0^8,^12.0^13,^18]pentacosa-1(24),2(6),4,9,11,13,15,17,21(2 5),22-decaen-22-amine] | > 7.30 | 7.30 to 10.00 | 6.30 to 7.30 | > 7.30 | 7.30 to 10.00 | > 7.30 | < 6.30 | 7.30 to 10.00 | 6.30 to 7.30 | > 7.30 | A (bin A for very high selectivity, ratio >30-fold) | A (bin A for very high selectivity, ratio >30-fold) | C (bin C for moderate selectivity, ratio ≥1) | A (bin A for very high selectivity, ratio >30-fold)
CCn1ncc2c1-c1cnc(N)c(c1)OC(C)c1cc(F)cnc1-c1ccnn1C2 (centres unmarked) [Example 37, 3-ethyl-16-fluoro-19-methyl-20-oxa-3,4,8,9,14,23-hexaazapentacyclo[19.3.1.0^2,^6.0^8,^12.0^13,^18]pentacosa-1(24),2(6),4,9,11,13,15,17,21(25),22-decaen-22-amine] | 6.30 to 7.30 | 7.30 to 10.00 | < 6.30 | > 7.30 | 7.30 to 10.00 | > 7.30 | < 6.30 | 7.30 to 10.00 | 6.30 to 7.30 | > 7.30 | A (bin A for very high selectivity, ratio >30-fold) | A (bin A for very high selectivity, ratio >30-fold) | B (bin B for high selectivity, ratio >10-fold) | A (bin A for very high selectivity, ratio >30-fold)
C[C@H]1Oc2cc(cnc2N)-c2c(cnn2C2CCC2)Cn2ncnc2-c2ccc(F)cc21 [Example 39, (19R)-3-cyclobutyl-16-fluoro-19-methyl-20-oxa-3,4,8,9,11,23-hexaazapentacyclo[19.3.1.0^2,^6.0^8,^12.0^13,^18]pentacosa-1(24),2(6),4,9,11,13,15,17,21(25),22-decaen-22-amine] | > 7.30 | 7.30 to 10.00 | < 6.30 | > 7.30 | 7.30 to 10.00 | > 7.30 | < 6.30 | 7.30 to 10.00 | 6.30 to 7.30 | > 7.30 | A (bin A for very high selectivity, ratio >30-fold) | A (bin A for very high selectivity, ratio >30-fold) | B (bin B for high selectivity, ratio >10-fold) | A (bin A for very high selectivity, ratio >30-fold)
